Reference: patent US20260098043A1, “POLYCYCLIC COMPOUND AND USE THEREOF” (HAINAN SIMCERE ZAIMING PHARMECEUTICAL CO., LTD., priority 2022, published 2026)
pIC50: −log10 of the molar value. Like-named read-outs stand apart in the source and are kept apart here.

Columns and labels:
[1] = tested on: MV-4-11 cells; experiment: Antiproliferative activity for MV-4-11 cells (CellTiter-Glo, 3 days); assay type: cell-based; settings: Homo sapiens, MV4-11, 72 h, read-out: IC50 (antiproliferative activity for MV-4-11 cells)
Protocol: The medium of the target cells MV-4-11 (CBP60522, Cobioer) was removed, and PBS was added for rinsing once, followed by digestion with trypsin (Trypsin-EDTA (0.25%)) for 5 min. After the digestion, 10 mL of a complete medium (IMDM+10% FBS) was added to neutralize the trypsin. The cells were then pipetted and collected, centrifuged at 1000 rpm for 5 min, and counted. The cell density was adjusted to 30,000 cells/mL. 90 μL of the cell suspension was added to a 96-well low-adsorption plate. 200 μL of PBS was added to the edge wells of the 96-well plate. The plate was centrifuged at 1000 rpm for 5 min to form cell spheroids, which were then incubated in a cell incubator overnight. […]
The cells were removed from the incubator and allowed to return to room temperature within 30 min. 50 μL of the CellTiter-Glo® Cell Viability Assay reagent was added, and the plate was shaken to mix thoroughly for 10 min before it was read on the Envision microplate reader.
The antiproliferative activity of the compounds of the present disclosure for MV-4-11 cells was determined through the above test, and the cell growth inhibition rate for each sample well was calculated based on the raw data.
(§1) Data analysis was performed by GraphPad Prism 9. The concentration-response curves were obtained using non-linear four-parameter fitting, and the IC50 for the compound was calculated: […]

[2] = molecular target: T1, BRD4 (Homo sapiens, UniProt O60885); experiment: Degradation activity for BRD4 proteins in MV-4-11 cells (Western blot, 6 h); assay type: cell-based; settings: for DC50: read-out: DC50 of BRD4 protein degradation
T1 construct: The degradation activity for BRD4 proteins in MV-4-11 cells; host or cells: MV-4-11
Protocol: The medium of MV-4-11 (CBP60522, Cobioer) was removed, and PBS was added for rinsing once, followed by digestion with trypsin (Trypsin-EDTA (0.25%)) for 5 min. After the digestion, 10 mL of a complete medium (an IMDM medium containing 10% FBS) was added to neutralize the trypsin. The cells were then pipetted and collected, centrifuged at 1000 rpm for 5 min, and counted. The cell density was adjusted to 500,000 cells/mL. 2 mL of the cell suspension was added to a 12-well plate, and the plate was incubated in a cell incubator overnight.
The compounds of the present disclosure were dissolved in DMSO at a stock concentration of 10 mM. The compound stock solution was subjected to gradient dilution (4-fold dilution), resulting in 8 concentration points. DMSO was used as the negative control group, and the DMSO content was 0.1%. After mixing the compound with the cell suspension thoroughly, the mixture was incubated at 37° C. with 5% CO2 for 6 h.
Six hours after drug treatment, the supernatant was discarded, and the cells were washed with 1000 μL of pre-cooled PBS. 100 μL of RIPA lysis buffer (25 mM Tris-HCl, pH=7.5, 150 mM NaCl, 1% NP-40, 1 mM EDTA, pH=8.0, 1 mM PMSF, 1 mM Na3VO4, and 1× Protease Inhibitor Cocktail-P2714, Sigma) was added and placed on ice for lysis for 10 min. The lysed cell samples were collected and centrifuged at 12000 rpm at 4° C. for 30 min. The concentration of each protein sample was determined using the Pierce BCA kit for protein quantification. An appropriate amount of 5×SDS-PAGE protein loading buffer was added to the collected protein samples, and the mixtures were then heated in a metal bath at 100° C. for 10 min to fully denature the proteins. The protein samples were loaded into the SDS-PAGE gel loading wells and electrophoresed at a constant voltage of 120 V for 60 min. After the electrophoresis, the gel was transferred to a PVDF membrane using a Bio-bad transfer apparatus. After the transfer, the band was cut according to the size of the target protein and blocked with 5% BSA (prepared by dissolving 5 g of BSA in 100 mL of TBST) at room temperature for 1 h. […] The proteins were detected using the SuperSignal West Atto ultra-sensitive ECL luminescent liquid.
The degradation activity for BRD4 proteins in MV-4-11 cells by the compounds of the present disclosure was determined through the above test. The gray values of the target sample bands were read using Image J software, and the protein degradation rate for each sample well was calculated based on the raw data.
[formula] • wherein: • All raw data were processed for data analysis using GraphPad Prism 9. The concentration-response curves were obtained using non-linear four-parameter fitting, and the DC50 for the compound was calculated: […]

[3] = molecular target: T2, human Cereblon WT (Homo sapiens, UniProt Q96SW2); experiment: Cereblon binding experiment (HTRF Human Cereblon Binding Kit, competition with XL665-labeled lenalidomide tracer); settings: 3 h incubation at room temperature, 100% inhibition = 200 μM lenalidomide, read-out: IC50 (binding ability to Cereblon)
T2 construct: purchased
Description: The detection kit (HTRF Human Cereblon Binding Kits) used in the experiment was a detection method for the quantitative measurement of Cereblon WT ligands using HTRF® technology. The detection principle was based on HTRF technology, where the specifically labeled GST antibody (Euroum Cryptate, donor) simultaneously bound to the GST-labeled human Cereblon WT ligand and the XL665-labeled lenalidomide tracer (acceptor). The donor was excited by a light source to induce fluorescence resonance energy transfer (FRET) to the acceptor, and the acceptor emitted fluorescence at a specific wavelength of 665 nm. After the addition of a compound, the compound competed with the XL665-labeled lenalidomide to prevent FRET from occurring. […]
The compounds of the present disclosure were dissolved in DMSO at a stock concentration of 10 mM. […] The HTRF signal in each well was measured using an Envision plate reader. […]
The ratio of acceptor to donor emission signals was calculated for each well: […]
as §1
The binding ability of the compounds of the present disclosure to Cereblon was determined through the above test, and the measured IC50 values were shown in Table 1.

[4] = MV-4-11 cells, 6 h, Western blot

Cc1sc2c(c1C)C(c1ccc(Cl)cc1)=N[C@@H](CC(=O)NCCCCCC(=O)NCc1cccc3c1ccc1c3n(C)c(=O)n1C1CCC(=O)NC1=O)c1nnc(C)n1-2 (stereo partly drawn) [Compound 3, 6-(2-((S)-4-(4-Chlorophenyl)-2,3,9-trimethyl-6H-thieno[3,2-f][1,2,4]triazolo[4,3-a][1,4]diazepin-6-yl)acetamido)-N-((3-(2,6-dioxopiperidin-3-yl)-1-methyl-2-oxo-2,3-dihydro-1H-naphtho[1,2-d]imidazol-6-yl)methyl)hexanamide]
pIC50 ([1]; MV-4-11 cells, 3 days, CellTiter-Glo): 7.85
Dmax ([2]; MV4-11, MV-4-11 cells, 6 h, Western blot, read-out: Maximum degradation rate (%) of BRD4 protein): 74.3%
DC50 [2, 4]: 0.0112 µM

Cn1c(=O)n(C2CCC(=O)NC2=O)c2ccc3c(c21)CNCC3 (centres unmarked) [Compound 8, 3-(1-methyl-2-oxo-1,2,6,7,8,9-hexahydro-3H-imidazo[4,5-h]isoquinolin-3-yl)piperidine-2,6-dione, reference compound]
pIC50 [3]: 5.06

Cc1sc2c(c1C)C(c1ccc(Cl)cc1)=N[C@@H](CC(=O)NCCCCCC(=O)NCc1ccc3ccc4c(c3c1)n(C)c(=O)n4C1CCC(=O)NC1=O)c1nnc(C)n1-2 (stereo partly drawn) [Compound 2, 6-(2-((S)-4-(4-chlorophenyl)-2,3,9-trimethyl-6H-thieno[3,2-f][1,2,4]triazolo[4,3-a][1,4]diazepin-6-yl)acetamido)-N-((3-(2,6-dioxopiperidin-3-yl)-1-methyl-2-oxo-2,3-dihydro-1H-naphtho[1,2-d]imidazol-8-yl)methyl)hexanamide]
pIC50 [1]: 8.42
Dmax ([2]; MV4-11, read-out: Maximum degradation rate (%) of BRD4 protein): 85.6%
DC50 [2, 4]: 0.00219 µM

Cn1c(=O)n(C2CCC(=O)NC2=O)c2ccc3ccccc3c21 (centres unmarked) [Compound 1, 3-(1-methyl-2-oxo-1,2-dihydro-3H-naphtho[1,2-d]imidazol-3-yl)piperidine-2,6-dione]
pIC50 [3]: 6.73
